Columns and labels:
SKOV3 cells [1] = test: MTT antiproliferative assay, SKOV3; format: cell-based, human; details: for IC50: Homo sapiens, SK-OV-3, MTT, SKOV3 (ovarian), mean ± SD of three experiments; for fold better activity than doxorubicin: SKOV3, ratio of IC50 values
From the text: (§1) adenocarcinoma) cell lines.
(§2) supplied to that same media.
(§3) carbon dioxide. […] The positive
(§4) (FluoStar Omega (BMG Labtec, Ortenberg, Germany).

A549 cells [2] = test: MTT antiproliferative assay, A549; format: cell-based, human; details: for IC50: Homo sapiens, MTT, A549 (lung), mean ± SD of three experiments; for times more active than doxorubicin: A549, ratio of IC50 values
From the text: as §1, §2, §3, §4

MDA-MB-231 cells [3] = test: MTT antiproliferative assay, MDA-MB-231; details: for IC50: read-out: IC50 (μM) MDA-MB231, MTT, MDA-MB-231 (breast), mean ± SD of three experiments; for fold increase in cytotoxicity versus doxorubicin: MDA-MB-231, ratio of IC50 values
Experimental: Doxorubicin was used as a standard anticancer drug.
The cytotoxicity was assessed using the MTT method, according to our previously reported work [32]. The cell lines were purchased from American Type Culture Collection (ATCC).
FBS (10%) and 100 units/mL PS (penicillin/streptomycin) were
supplied to that same media. The cells incubated at 37 °C in a humidified environment with 5%

[4] = tested on: non-small cell lung cancer (NSCLC); details: cited from earlier work
esophageal cancer = details: cited from earlier work
hepatocellular carcinoma = details: cited from earlier work
EGFR kinase = EGFR kinase (Homo sapiens, UniProt P00533); test: In vitro EGFR inhibitory activity; format: biochemical
Experimental: EGFR inhibitory activity was assayed according to the reported method.

MDA-MB-231 cells [5] = test: Apoptosis, annexin V-FITC/PI flow cytometry, MDA-MB-231; format: cell-based, human; details: for early apoptosis / late apoptosis: MDA-MB-231
Experimental: (§5) The apoptosis studies regarding compounds 10 and 13 using annexin V-FITC/PI staining was also examined by flow cytometry.
as §1, §2, §3, §4
(§6) delivered to cancer cells for 48 hours. A549, MDA,MB 231 and SKOV3 cells were then
(§7) Technology (CST) and incubated for 15 minutes. Fluorescence activated cell sorting analysis
(§8) of cell cycle phases for each sample [37].

SKOV3 cells [6] = test: Apoptosis, annexin V-FITC/PI flow cytometry, SKOV3; format: cell-based, human
Experimental: as §5, §1, §2, §3, §4, §6, §7, §8

MDA-MB-231 cells [7] = test: Cell cycle distribution, propidium iodide flow cytometry, MDA-MB-231; format: cell-based, human; details: for cell cycle arrest phase: MDA-MB-231; for cell distribution in G1 phase / cell distribution in S phase / cell distribution in G2 phase: MDA-MB-231, treated at IC50 for 48 h; for cell distribution in G1 phase: control 28.51 ± 2.09%; for cell distribution in S phase: control 35.51 ± 2.10%; for cell distribution in G2 phase: control 35.96 ± 1.97%
Experimental: (§9) The most promising compounds (10 and 13) were explored for cell cycle distribution to determine the intracellular mode of action of these compounds. […] In the present study, compounds 10 and 13 arrest different cell cycle phases in A549, MDA-MB 231, and SKOV3 cancer cells. […] However, compound 10 arrests the G2/S phase in both MDA-MB 231 and SKOV3, while it arrests the G1/G2 phases in lung A549 carcinoma.
(§10) The analysis was performed according to our previously published work.
as §1, §2, §3, §4, §6, §7, §8

SKOV3 cells [8] = test: Cell cycle distribution, propidium iodide flow cytometry, SKOV3; format: cell-based, human; details: for cell cycle arrest phase: SKOV3; for cell distribution in G1 phase / cell distribution in G2 phase / cell distribution in S phase: SKOV3, treated at IC50 for 48 h; for cell distribution in G1 phase: control 31.03 ± 1.86%; for cell distribution in G2 phase: control 34.23 ± 1.38%; for cell distribution in S phase: control 34.72 ± 1.80%
Experimental: as §9, §10, §1, §2, §3, §4, §6, §7, §8

A549 cells [9] = test: Cell cycle distribution, propidium iodide flow cytometry, A549; format: cell-based, human; details: for cell cycle arrest phase: A549; for cell distribution in G2 phase / cell distribution in G1 phase / cell distribution in S phase: A549, treated at IC50 for 48 h; for cell distribution in G2 phase: control 29.13 ± 2.31%; for cell distribution in G1 phase: control 32.88 ± 2.04%; for cell distribution in S phase: control 38.48 ± 3.71%
Experimental: as §9, §10, §1, §2, §3, §4, §6, §7, §8

A549 cells [10] = test: Apoptosis, annexin V-FITC/PI flow cytometry, A549; format: cell-based, human; details: for early apoptosis: A549; for late apoptosis / necrosis: A549, result in words
Experimental: as §5, §1, §2, §3, §4, §6, §7, §8

Sequence of EGFR kinase (P00533 25-1210): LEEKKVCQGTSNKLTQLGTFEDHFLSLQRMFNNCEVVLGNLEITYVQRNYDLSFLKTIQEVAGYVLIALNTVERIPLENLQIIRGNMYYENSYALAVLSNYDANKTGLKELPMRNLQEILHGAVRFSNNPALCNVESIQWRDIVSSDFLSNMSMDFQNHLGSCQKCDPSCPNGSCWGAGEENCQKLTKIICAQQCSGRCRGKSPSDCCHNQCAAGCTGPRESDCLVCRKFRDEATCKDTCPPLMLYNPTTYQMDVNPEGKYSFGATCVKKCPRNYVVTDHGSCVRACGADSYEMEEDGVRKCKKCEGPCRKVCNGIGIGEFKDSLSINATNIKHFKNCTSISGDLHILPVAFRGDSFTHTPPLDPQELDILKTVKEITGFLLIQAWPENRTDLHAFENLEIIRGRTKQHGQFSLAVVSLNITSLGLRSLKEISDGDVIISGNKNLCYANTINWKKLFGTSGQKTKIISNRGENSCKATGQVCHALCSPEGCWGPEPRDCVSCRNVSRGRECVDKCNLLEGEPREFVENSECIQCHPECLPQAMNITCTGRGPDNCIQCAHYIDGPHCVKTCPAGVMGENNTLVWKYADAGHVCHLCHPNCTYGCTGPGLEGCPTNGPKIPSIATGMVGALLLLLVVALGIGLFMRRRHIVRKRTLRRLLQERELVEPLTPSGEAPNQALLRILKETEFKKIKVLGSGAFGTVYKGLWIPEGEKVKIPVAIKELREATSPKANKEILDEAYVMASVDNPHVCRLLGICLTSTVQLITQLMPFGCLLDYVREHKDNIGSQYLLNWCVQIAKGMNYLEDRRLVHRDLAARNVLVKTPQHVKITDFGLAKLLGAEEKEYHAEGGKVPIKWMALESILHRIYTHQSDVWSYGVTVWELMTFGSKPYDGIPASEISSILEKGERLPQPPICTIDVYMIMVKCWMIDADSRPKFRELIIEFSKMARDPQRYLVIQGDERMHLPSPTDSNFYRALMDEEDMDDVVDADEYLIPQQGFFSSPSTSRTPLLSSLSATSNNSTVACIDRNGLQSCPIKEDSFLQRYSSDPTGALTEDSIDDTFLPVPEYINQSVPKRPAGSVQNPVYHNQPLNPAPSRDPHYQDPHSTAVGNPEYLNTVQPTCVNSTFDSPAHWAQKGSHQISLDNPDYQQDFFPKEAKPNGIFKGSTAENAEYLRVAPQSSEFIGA

SMILES: Cc1ccccc1-n1cc(CSc2nnc(Cn3c(-c4ccc(Cl)cc4Cl)nc4ccccc43)o2)nn1 [Compound 11, 2-{[2-(2,4-Dichlorophenyl)-1H-benzo[d]imidazol-1-yl]methyl}-5-({[1-(o-tolyl)-1H-1,2,3-triazol-4-yl]methyl}thio)-1,3,4-oxadiazole]
- IC50 (SKOV3 cells [1]): 25.7 ± 1.16 µM
- IC50 (A549 cells [2]): 43.8 ± 0.87 µM
- melting point: 152 to 153 °C
- IC50 (MDA-MB-231 cells [3]): 36.7 ± 0.75 µM

SMILES: COc1cccc2c1C(=O)c1c(O)c3c(c(O)c1C2=O)C[C@@](O)(C(=O)CO)C[C@@H]3O[C@H]1C[C@H](N)[C@H](O)[C@H](C)O1 [doxorubicin, reference compound]
- IC50 (SKOV3 cells [1]): 8.65 ± 0.37 µM
- IC50 (A549 cells [2]): 5.85 ± 0.61 µM
- IC50 (MDA-MB-231 cells [3]): 4.76 ± 0.44 µM

SMILES: Fc1ccc(-n2cc(CSc3nnc(Cn4c(-c5ccc(Cl)cc5Cl)nc5ccccc54)o3)nn2)cc1 [Compound 8, 2-{[2-(2,4-Dichlorophenyl)-1H-benzo[d]imidazol-1-yl]methyl}-5-({[1-(4-Fluorophenyl)-1H-1,2,3-triazol-4-yl]methyl}thio)-1,3,4-oxadiazole]
- IC50 (SKOV3 cells [1]): 17.7 ± 0.68 µM
- IC50 (A549 cells [2]): 26.7 ± 1.26 µM
- melting point: 110 to 112 °C
- IC50 (MDA-MB-231 cells [3]): 15.5 ± 1.64 µM

SMILES: Clc1ccc(-c2nc3ccccc3n2Cc2nnc(SCc3cn(-c4ccc(Cl)cc4Cl)nn3)o2)c(Cl)c1 [Compound 12, 2-({[1-(2,4-Dichlorophenyl)-1H-1,2,3-triazol-4-yl]methyl}thio)-5-{[2-(2,4-Dichlorophenyl)-1H-benzo[d]imidazol-1-yl]methyl}-1,3,4-oxadiazole]
- IC50 (SKOV3 cells [1]): 33.6 ± 0.91 µM
- IC50 (A549 cells [2]): 37.1 ± 0.67 µM
- melting point: 100 to 102 °C
- IC50 (MDA-MB-231 cells [3]): 25.2 ± 1.82 µM

SMILES: C#Cc1cccc(Nc2ncnc3cc(OCCOC)c(OCCOC)cc23)c1 [Erlotinib, erlotinib]
- cell cycle arrest phase [4]: G0/G1 phase
- cell cycle arrest phase (esophageal cancer): G1/G0 phase
- cell cycle arrest phase (hepatocellular carcinoma): G1/S checkpoint

SMILES: COc1ccc(NC(=O)CSc2nnc(Cn3c(-c4ccc(Cl)cc4Cl)nc4ccccc43)o2)cc1 [Compound 16, 2-[(5-{[2-(2,4-Dichlorophenyl)-1H-benzo[d]imidazol-1-yl]methyl}-1,3,4-oxadiazol-2-yl)thio]-N-(4-Methoxyphenyl)acetamide]
- IC50 (SKOV3 cells [1]): 8.13 ± 0.28 µM
- IC50 (A549 cells [2]): 7.83 ± 0.35 µM
- IC50 (EGFR kinase): 1.09 ± 0.011 µM
- melting point: 195 to 197 °C
- IC50 (MDA-MB-231 cells [3]): 10.5 ± 0.88 µM

SMILES: Oc1ccccc1-n1cc(CSc2nnc(Cn3c(-c4ccc(Cl)cc4Cl)nc4ccccc43)o2)nn1 [Compound 10, 2-(4-{[(5-{[2-(2,4-Dichlorophenyl)-1H-benzo[d]imidazol-1-yl]methyl}-1,3,4-oxadiazol-2-yl)thio]methyl}-1H-1,2,3-triazol-1-yl)phenol]
- early apoptosis (MDA-MB-231 cells [5]): 69.7%
- late apoptosis (MDA-MB-231 cells [5]): 3.2%
- necrosis (MDA-MB-231 cells [5]; MDA-MB-231, result in words): without any necrosis
- early apoptosis (SKOV3 cells [6]): 58.5%
- IC50 (SKOV3 cells [1]): 6.98 ± 0.28 µM
- fold better activity than doxorubicin (SKOV3 cells [1]): 1.23 fold
- cell cycle arrest phase (MDA-MB-231 cells [7]): S and G2 phases
- cell distribution in G1 phase (MDA-MB-231 cells [7]): 17.58 ± 1.45%
- cell distribution in S phase (MDA-MB-231 cells [7]): 37.82 ± 2.57%
- cell distribution in G2 phase (MDA-MB-231 cells [7]): 44.58 ± 3.03%
- times more active than doxorubicin (A549 cells [2]): 1.76 times
- IC50 (A549 cells [2]): 3.31 ± 0.14 µM
- IC50 (EGFR kinase): 0.33 ± 0.051 µM
- cell cycle arrest phase (SKOV3 cells [8]): G2/S phase
- cell distribution in G1 phase (SKOV3 cells [8]): 16.15 ± 2.11%
- cell distribution in G2 phase (SKOV3 cells [8]): 48.73± 1.89%
- cell distribution in S phase (SKOV3 cells [8]): 35.11 ± 1.21%
- cell cycle arrest phase (A549 cells [9]): G1 and G2 phases
- cell distribution in G2 phase (A549 cells [9]): 33.01 ± 2.28%
- cell distribution in G1 phase (A549 cells [9]): 34.66 ± 2.80%
- cell distribution in S phase (A549 cells [9]): 32.32 ± 1.51%
- fold increase in cytotoxicity versus doxorubicin (MDA-MB-231 cells [3]): 4.0 fold
- IC50 (MDA-MB-231 cells [3]): 1.18 ± 0.68 µM
- early apoptosis (A549 cells [10]): 55.1%
- late apoptosis (A549 cells [10]): no late apoptosis
- necrosis (A549 cells [10]): no late apoptosis or necrosis

SMILES: COC(=O)c1ccccc1NC(=O)CSc1nnc(Cn2c(-c3ccc(Cl)cc3Cl)nc3ccccc32)o1 [Compound 17, Methyl 2-{2-[(5-{[2-(2,4-Dichlorophenyl)-1H-benzo[d]imidazol-1-yl]methyl}-1,3,4-oxadiazol-2-yl)thio]acetamido}benzoate]
- IC50 (SKOV3 cells [1]): 12.2 ± 0.35 µM
- IC50 (A549 cells [2]): 18 ± 0.87 µM
- IC50 (EGFR kinase): 1.54 ± 0.026 µM
- melting point: 176 to 178 °C
- IC50 (MDA-MB-231 cells [3]): 11.9 ± 0.91 µM

SMILES: O=C(CSc1nnc(Cn2c(-c3ccc(Cl)cc3Cl)nc3ccccc32)o1)Nc1ccc(F)cc1F [Compound 14, 2-[(5-{[2-(2,4-Dichlorophenyl)-1H-benzo[d]imidazol-1-yl]methyl}-1,3,4-oxadiazol-2-yl)thio]-N-(2,4-Difluorophenyl)acetamide]
- IC50 (SKOV3 cells [1]): 12.8 ± 0.53 µM
- IC50 (A549 cells [2]): 11.6 ± 0.29 µM
- IC50 (EGFR kinase): 1.21 ± 0.047 µM
- melting point: 212 to 214 °C
- IC50 (MDA-MB-231 cells [3]): 20.9 ± 0.24 µM

SMILES: O=C(CSc1nnc(Cn2c(-c3ccc(Cl)cc3Cl)nc3ccccc32)o1)Nc1ccc(F)cc1 [Compound 13, 2-[(5-{[2-(2,4-Dichlorophenyl)-1H-benzo[d]imidazol-1-yl]methyl}-1,3,4-oxadiazol-2-yl)thio]-N-(4-Fluorophenyl)acetamide]
- early apoptosis (MDA-MB-231 cells [5]): 80.24%
- late apoptosis (MDA-MB-231 cells [5]): 5.4%
- early apoptosis (SKOV3 cells [6]): 76.2%
- late apoptosis (SKOV3 cells [6]): 21.7%
- IC50 (SKOV3 cells [1]): 4.35 ± 0.38 µM
- fold better activity than doxorubicin (SKOV3 cells [1]): 1.98 fold
- cell cycle arrest phase (MDA-MB-231 cells [7]): G1 and S phases
- cell distribution in G1 phase (MDA-MB-231 cells [7]): 34.88 ± 3.09%
- cell distribution in S phase (MDA-MB-231 cells [7]): 41.14 ± 1.34%
- cell distribution in G2 phase (MDA-MB-231 cells [7]): 23.97 ± 2.93%
- times more active than doxorubicin (A549 cells [2]): 1.1 times
- IC50 (A549 cells [2]): 5.3 ± 0.44 µM
- IC50 (EGFR kinase): 0.38 ± 0.022 µM
- cell cycle arrest phase (SKOV3 cells [8]): only the S phase
- cell distribution in G1 phase (SKOV3 cells [8]): 25.38 ± 0.44%
- cell distribution in G2 phase (SKOV3 cells [8]): 28.65 ± 1.73%
- cell distribution in S phase (SKOV3 cells [8]): 45.93 ± 1.78%
- cell cycle arrest phase (A549 cells [9]): G1 phase
- cell distribution in G2 phase (A549 cells [9]): 24.64 ± 2.52%
- cell distribution in G1 phase (A549 cells [9]): 36.34 ± 2.19%
- cell distribution in S phase (A549 cells [9]): 38.99 ± 1.67%
- fold increase in cytotoxicity versus doxorubicin (MDA-MB-231 cells [3]): 1.64 fold
- IC50 (MDA-MB-231 cells [3]): 2.9 ± 0.53 µM
- early apoptosis (A549 cells [10]): 66.4%
- late apoptosis (A549 cells [10]): no late apoptosis
- necrosis (A549 cells [10]): no late apoptosis or necrosis

SMILES: Clc1ccc(-c2nc3ccccc3n2Cc2nnc(SCc3cn(-c4cccc(Br)c4)nn3)o2)c(Cl)c1 [Compound 9, 2-({[1-(3-Bromophenyl)-1H-1,2,3-triazol-4-yl]methyl}thio)-5-{[2-(2,4-Dichlorophenyl)-1H-benzo[d]imidazol-1-yl]methyl}-1,3,4-oxadiazole]
- IC50 (SKOV3 cells [1]): 13.6 ± 0.71 µM
- IC50 (A549 cells [2]): 17.4 ± 0.54 µM
- IC50 (EGFR kinase): 0.95 ± 0.023 µM
- melting point: 180 to 182 °C
- IC50 (MDA-MB-231 cells [3]): 10.9 ± 0.58 µM

SMILES: O=C(CSc1nnc(Cn2c(-c3ccc(Cl)cc3Cl)nc3ccccc32)o1)Nc1ccc(Br)cc1 [Compound 15, N-(4-Bromophenyl)-2-[(5-{[2-(2,4-Dichlorophenyl)-1H-benzo[d]imidazol-1-yl]methyl}-1,3,4-oxadiazol-2-yl)thio]acetamide]
- IC50 (SKOV3 cells [1]): 13.7 ± 0.45 µM
- IC50 (A549 cells [2]): 20.6 ± 1.41 µM
- melting point: 220 to 222 °C
- IC50 (MDA-MB-231 cells [3]): 16.4 ± 0.44 µM

Source: paper PMC9607330, “Cell Cycle Arrest and Apoptosis-Inducing Ability of Benzimidazole Derivatives: Design, Synthesis, Docking, and Biological Evaluation” (Molecules, 2022)
